The source of these data is patent US12569658B2, “Intranasal and olfactory delivery devices and methods of use” (Rocket Science Health Corp., priority 2023, dated 2026).

This data set in a line: Lateralized olfactory delivery of oxytocin via cannula into the right nostril; brain distribution by mass spectrometry imaging (MSI). The data set is classed as in vivo, Sprague-Dawley male rats. To be noted: for Blue Pixel Count (intensity corresponding to oxytocin): 30 mg/kg, 25 μL into right nostril, 2 hours, pixels with B-value exceeding 180. Here is the method:
Sprague-Dawley male rats (150˜250 g) n=3 per time point×2 time points were used in this study. Animals were fasted per facility protocols (free access to water). Sedation by 50 mg/kg pentobarbital or equivalent procedure and maintenance with isoflurane. Test article administration: The animal is kept supine with the head kept at an angle to minimize movement of the olfactory plane above zero degrees (to prevent gravity drainage into the olfactory cleft). In this study Oxytocin (30 mg/kg) was delivered via the canulated olfactory delivery model which is: a 0.699 mm diameter cannula with lipophilic ointment spread on the catheter which is carefully inserted into the right nostril with a minimal angle of 20° to the target of the correct meatus. The left nostril is occluded with a non-toxic quick setting compound to prevent cross contamination. During insertion the catheter is rotated gently to advance it through the tight nasal cavity. Once the catheter reaches the ethmoid turbinate it cannot be advance gently anymore (˜15 mm). 25 μL of oxytocin is slowly instilled in the olfactory region (FIGS. 23A-B). The animals were kept sedated for 2 hours. After 2 hours, the animals were humanely euthanized by cervical dislocation. Sample collection: Olfactory bulb and brain: Rats olfactory bulb and brain were collected and snap-freeze in liquid nitrogen. The tissue was stored at −80 C until analysis. Sample Preparation: Olfactory bulb and brain samples was homogenized with ice-cold phosphate buffer saline (pH 7.4) at a ratio of 4 (buffer): 1 (tissue) (v/w). An aliquot of 20 μL homogenate was spiked into 1.5 mL tube, and 100 μL of acetonitrile containing internal standard were added for protein precipitation. The mixture was vortexed, centrifuged at 14000 rpm for 5 min. 80 μL supernatant was transferred into a 96 well plate, and 240 μL of sterile deionized water was added, the mixture was vortexed and injected for LC-MS/MS analysis.
Sample analysis: Test compound in olfactory bulb, brain, and plasma samples will be analyzed by LC/MS/MS. Calibration curve was constructed in blank olfactory bulb homogenate. Using a High-throughput RapifleX MALDI-TOF/TOF mass spectrometer the samples were analyzed utilizing non-labeled detection technologies. This is important as this technique explores the regional distribution patterns of target molecule (FIG. 24). The frozen section of brain tissue was cut into 12 μm sections. Oxytocin at 200, […], 50, 20, 10, 5, 2 ng were used as standard in blank brain slide. And substrate were sprayed on the slides. The sample of the tissue section was ionized and desorbed with the substrate under the excitation of the laser beam. The released ions were identified with mass spectrometer. The detection levels were 2.68 ng/mm^2 (FIGS. 25A-D). To visualize the lateralized drug transfer through the brain the brain was sectioned into olfactory bulb, striatum and cerebrum sections (FIG. 26) and imaged with the Mass Spectrometry Imaging (MSI) system.
The images shown in FIGS. 27A-C were analyzed to estimate the relative concentration of oxytocin on each side of the brain. Image data was converted into a standard RGB color-map, with each of the red (R), green (G), and blue (B) values taking a value between 0 and 255. Pixels with B-values exceeding 180 were counted on each side of the brain, yielding the results in Table 1.

`CC[C@H](C)[C@@H]1NC(=O)[C@H](Cc2ccc(O)cc2)NC(=O)[C@@H](N)CSSC[C@@H](C(=O)N2CCC[C@H]2C(=O)N[C@@H](CC(C)C)C(=O)NCC(N)=O)NC(=O)[C@H](CC(N)=O)NC(=O)[C@H](CCC(N)=O)NC1=O` [oxytocin, Oxytocin]: the “ratio of blue pixels, targeted over untargeted half of the brain” value by setting is: (Cerebrum, 921/638) 1.44; (Olfactory, 962/475) 2.03; (Striatum, 7055/4085) 1.73. Besides, the “Blue Pixel Count (intensity corresponding to oxytocin)” value is 638 (Cerebrum, Left hemisphere (untargeted)); 921 (Cerebrum, Right hemisphere (targeted)); 475 (Olfactory, Left hemisphere (untargeted)); 962 (Olfactory, Right hemisphere (targeted)); 4085 (Striatum, Left hemisphere (untargeted)); 7055 (Striatum, Right hemisphere (targeted)). Besides, the “excess drug concentration on the targeted side of the brain” value (across the three studied regions (Cerebrum, Olfactory, Striatum)) is 44-103%. Moreover, the “distribution of oxytocin by MSI (FIG. 27C)” value (cerebrum slice) is listed as “lateralization coinciding with the targeted (right) hemisphere”. For the same compound, the “distribution of oxytocin by MSI (FIG. 27A)” value (olfactory bulb slice) is reported as “preferential right side distribution”. Moreover, the “distribution of oxytocin by MSI (FIG. 27B)” value (striatum slice) is recorded as “continued preferential right side distribution”.
